# Reference: patent publication US20260216350A1 (UNIVERSITY OF NOTRE DAME DU LAC, priority 2023, published 2026)
# What was measured:
# [1] = in vivo; cited from earlier work
# STZ diabetic mice [2] = assay: In vivo activity verification in overnight-fasted STZ diabetic mice; parameters: species or system mouse; settings: 0.1 mg/kg s.c.
# Protocol: (§2) STZ Mouse Model. A chemically induce diabetes mouse model were established in male C57BL6/J mice (8 weeks, 25 g, Jackson Laboratory) using streptozotocin (STZ), according to common protocols. Mice were fasted for 4 h prior to injection with STZ at 150 mg/kg i.p., dissolved in pH 4.5 citrate buffer. Treated mice were fasted for an additional 0.5 h and were then supplied with food and water as normal. Treated mice were allowed to develop diabetes for 7 d, and diabetes was verified using handheld blood glucose meters (CVS), targeting unfasted blood glucose level (BGL) above 600 mg/dL.
# In Vivo Activity Verification. STZ induced diabetic mice were fasted for 8 h on the eighth day following induction, and mice with BGL>350 mg/dL in their overnight fasted state were randomly divided into groups (n=4/group). […] BGLs for each group were continuously monitored for 6 h after treatment. Mice were fasted during the entire experiment.
# [3] = system: STZ-induced diabetic mouse model; assay: Determination of functional formulation and dose in STZ mice; settings: unmodified insulin 0.17 mg/kg; complexes 0.17 or 3.5 mg/kg Insulin-DiPBA
# Protocol: as §2
# Mice were challenged with three intraperitoneal glucose tolerance tests (IPGTT).
# [4] = system: STZ-induced diabetic mice; assay: Multi-day blood glucose control study; assay type: in vivo, mouse
# Protocol: (§1) STZ Mouse Model. […] Specifics of these studies are detailed here:
# Multi-Day Blood Glucose Control Study. […] BGL was then monitored for an additional 3 h following IPGTT. Mice were fasted during the entire IPGTT period with free access to water. Mice were fed after IPGTT. At 48 h post treatment, mice were fasted for 5 h followed by an IPGTT challenge for 3 h. Mice were then fed at the end of IPGTT. The IPGTT challenges were repeated on Day 4 and Day 6. Area under the curve (AUC) for each IPGTT cycle was calculated using the trapezoidal rule and statistically analyzed using GraphPad Prism v 9.0.
# STZ diabetic mice [5] = assay: Long term blood glucose control study (serial dosing); assay type: in vivo, mouse
# Protocol: as §1
# Long term blood glucose control study. Healthy mice were first weighed individually and injected STZ following the above protocol. […] Mice were fed after treatment injection and brought back to their cage on Day 0. […] For all other groups, 48 h post treatment injection, mice were fasted for 5 h to adjust for time since last eating, followed with BGL measurement. The same process was repeated at 96 h following treatment injection. After measurement, mice were weighed individually. Mice were then re-dosed with the same formula every 5 days, collecting BGL at 48 h and 96 h following treatment with a 5 h fast; the process was repeated for one month.
# insulin receptor = insulin receptor (Homo sapiens, UniProt P06213); settings: cited from earlier work
# Sequence of insulin receptor (P06213 28-758 limits assumed, species assumed): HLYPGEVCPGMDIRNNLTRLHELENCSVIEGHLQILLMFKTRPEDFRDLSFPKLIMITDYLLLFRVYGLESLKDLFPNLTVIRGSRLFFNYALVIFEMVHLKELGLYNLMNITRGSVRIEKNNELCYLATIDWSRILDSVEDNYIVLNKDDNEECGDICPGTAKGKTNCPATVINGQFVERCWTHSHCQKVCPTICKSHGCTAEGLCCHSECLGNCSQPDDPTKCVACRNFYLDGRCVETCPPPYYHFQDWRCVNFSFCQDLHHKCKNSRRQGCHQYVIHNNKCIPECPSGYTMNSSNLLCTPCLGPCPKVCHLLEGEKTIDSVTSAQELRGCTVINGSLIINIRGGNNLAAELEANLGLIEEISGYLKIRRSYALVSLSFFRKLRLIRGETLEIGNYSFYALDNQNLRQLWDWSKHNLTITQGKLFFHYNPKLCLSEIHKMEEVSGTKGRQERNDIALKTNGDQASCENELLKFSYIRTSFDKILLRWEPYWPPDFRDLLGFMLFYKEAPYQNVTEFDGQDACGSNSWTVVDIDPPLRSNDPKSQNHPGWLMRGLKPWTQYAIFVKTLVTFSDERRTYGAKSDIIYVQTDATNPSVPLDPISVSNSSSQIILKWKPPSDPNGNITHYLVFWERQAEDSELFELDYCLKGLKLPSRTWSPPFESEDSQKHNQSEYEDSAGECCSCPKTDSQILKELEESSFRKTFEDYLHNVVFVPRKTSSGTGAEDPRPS
# Sequence of insulin receptor (P06213 763-1382 partner limits assumed, species assumed): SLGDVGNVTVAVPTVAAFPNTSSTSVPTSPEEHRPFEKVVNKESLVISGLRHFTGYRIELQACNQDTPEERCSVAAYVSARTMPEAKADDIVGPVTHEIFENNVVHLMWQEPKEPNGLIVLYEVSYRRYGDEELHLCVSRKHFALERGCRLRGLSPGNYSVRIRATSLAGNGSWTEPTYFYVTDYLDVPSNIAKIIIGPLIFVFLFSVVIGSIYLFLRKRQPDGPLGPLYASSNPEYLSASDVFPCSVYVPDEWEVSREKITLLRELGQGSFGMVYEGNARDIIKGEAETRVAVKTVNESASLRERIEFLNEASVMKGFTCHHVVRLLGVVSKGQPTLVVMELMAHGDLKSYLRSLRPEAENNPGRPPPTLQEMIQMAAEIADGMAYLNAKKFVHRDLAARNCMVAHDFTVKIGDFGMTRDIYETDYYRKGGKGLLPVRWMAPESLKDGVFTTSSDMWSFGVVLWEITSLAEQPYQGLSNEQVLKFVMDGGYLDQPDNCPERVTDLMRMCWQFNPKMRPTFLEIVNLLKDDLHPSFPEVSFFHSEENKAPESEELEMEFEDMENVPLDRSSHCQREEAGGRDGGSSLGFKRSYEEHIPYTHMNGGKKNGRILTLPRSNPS
substance,measurement,setting,value
Insulin Glargine,duration of action,[1],24 to 36 h
"Insulin: recombinant human insulin, unmodified",time after which blood glucose increased,STZ diabetic mice [2],~ 120 min
same,BGL correction over three IPGTT cycles,[3],failed during the first IPGTT cycle
Insulin Detemir,blood glucose control with daily administration,[4]; 1 IU/kg daily,did not sustain blood glucose control when this was not combined with overnight fasting
same,"blood glucose level after 3 h, day 0 challenge","[4]; overnight-fasted, complexes 10.4 mg/kg, Insulin Detemir 1 IU/kg",71 mg/dL
same,blood glucose throughout 5 weeks of repeat dosing,"STZ diabetic mice [5]; complexes every 5 d, 10.4 mg/kg, Insulin Detemir daily 1 IU/kg, 3 h fast",did not provide sustained blood glucose correction
same,body weight reduction from pre-STZ levels,STZ diabetic mice [5]; daily dosing,~ 20%
same,insulin receptor binding affinity relative to unmodified insulin,insulin receptor,~ 25%
